According to patent publication US20190119284A1, “ErbB Inhibitors and Uses Thereof” (The Regents of the University of California, priority 2016, published 2019):

Key:
[1] = molecular target: T1, HER2 kinase domain (Homo sapiens, UniProt P04626); test: In vitro HER2 Kinase Assay; type: biochemical; conditions: 50 μM ATP
T1 construct: In vitro kinase assays with the HER2 kinase domain (SignalChem) were performed in triplicate; purchased SignalChem
Method: In vitro HER2 Kinase Assay. In vitro kinase assays with the HER2 kinase domain (SignalChem) were performed in triplicate as follows. To 9 μL of a 2.5× solution of kinase and substrate in reaction buffer was added 3 μL of a 5× DMSO or inhibitor dilution in 10% DMSO:water. The inhibitor/kinase solution was incubated at room temperature for 10 minutes. The kinase assay was initiated by the addition of 3 μL of a 5× solution of ATP, and ran for 15 minutes. The final reaction conditions were 50 mM Tris (pH7.4), 5 mM MnCl2, 0.01% Tween-20, 2 mM DTT, 100 μM E4Y substrate (SignalChem), 15 nM HER2, 2% DMSO, 50 μM ATP, and 1 μCi γ^32P-ATP. After 15 minutes, 3 μL of each reaction was pipetted onto phosphocellulose sheets (P81, Whatman) and allowed to dry. The sheets were then washed 4×5 min with a solution of 0.5% phosphoric acid, dried, and exposed to a phosphor screen overnight. Phosphorimaging was conducted on a Typhoon 9500, image intensities were quantified in ImageQuant 5.2, normalized to the DMSO control and plotted in GraphPad Prism 6.

[2] = molecular target: T2, HER3 kinase domain (Homo sapiens, UniProt P21860); test: HER3 Thermofluor Assay; type: binding; conditions: 20 μM inhibitor
T2 construct: added to 19 μL of the HER3 kinase domain in reaction buffer; made in house; host or cells: baculovirus/insect cells (inferred from the pFastBac plasmid)
Method: HER3 Thermofluor Assay. The HER3 gatekeeper mutation (T787M) was introduced into the HER3 tyrosine kinase domain in the pFastBac plasmid using standard protocols. Both wt and T787M HER3 were purified according to the previously published protocols. Thermofluor reactions were performed in duplicate and set up as follows. 1 μL of an inhibitor or DMSO dilution in 40% DMSO:water was added to 19 μL of the HER3 kinase domain in reaction buffer. The final reaction solution contained 100 mM MOPS, 200 mM NaCl, 5% glycerol, 5 mM MgCl2, 0.1 mM DTT, 5× SYPRO orange, 2 μM kinase, 2% DMSO and 20 μM inhibitor in the wells of a 96-well, low profile, white, PCR plate (USA scientific). The solution was pipetted up and down to mix, sealed with TempAssure clear PCR flat caps (USA Scientific), centrifuged at 500×g for 30 s, and heated in a Stratagene Mx3005P RT-PCR machine from 25° C. to 95° C. in 0.5° C. increments every 30 s after an initial incubation at 25° C. for 10 min. Fluorescence was measured at the end of each 30 s period with an excitation wavelength of 492 nm and an emission wavelength of 610 nm. […] Values after the well had reached a maximum signal were discarded and the signals were fit to the Boltzmann equation in Graphpad Prism 6. ΔTm was calculated as the difference in melting temperature between the compound treated kinase compared to the DMSO control.

[3] = test system: wt or T787M HER3 kinase domain; test: Thermofluor stabilization of HER3 kinase domain; type: binding; conditions: HER3 T787M vs wt kinase domain
Description: FIGS. 4A-4F. Compound 2 is a selective Type I inhibitor for HER2. […] FIG. 4B: Thermal stabilization of the HER3 kinase domain by either compound 2 or ATP as determined by Thermofluor (mean±SD, n=3). FIGS. 4C-4D: The crystal structure of either erlotinib (FIG. 4C) or 2 (FIG. 4D) bound to EGFR V924R. The kinase domain in complex with compound 2 has been stabilized in the active confirmation by drug binding, despite the mutation—as evidenced by the ordered extension of the activation loop and the inward positioning of the α-C helix.
FIGS. 12A-12B. […] FIG. 12A. […] FIG. 12B. Stabilization of either wt or T787M HER3 kinase domain by compound 2 compared to DMSO as determined by thermofluor (mean value±SD, n=2).

[4] = test system: SK-BR-3 cells; test: 72 h proliferation of SK-BR-3 cells in the presence or absence of NRG; type: cell-based; conditions: SK-BR-3, 72 h dose response +/- NRG
Method: FIGS. 1A-1E. NRG rescues HER2 over-expressing cancer cells from HER2 inhibitors. […] FIG 1B: Same experiment as depicted in FIG. 1A, but with the inhibitor TAK-285. FIG. 1C: The ability of NRG to rescue SK-BR-3 and BT-474 cell proliferation from HER2 inhibitors is dose dependent. Cells were treated with 1 μM of the indicated inhibitor in the presence of varying concentrations of NRG, and proliferation was read out after 72 h (mean±SD, n=3). […] FIG. 1E: Cartoon schematic of the EGFR family kinase domain asymmetric dimer. The C-terminal domain of the ‘activator’ kinase (right) interacts with the N-terminal portion of the ‘receiver’ kinase (left). This interaction stabilizes the active conformation of the receiver kinase identified by the ‘in’ conformation of the receiver kinase's α-C helix and the ordered extension of the activation loop.
FIGS. 5A-5D. […] FIG. 5A: Chemical structure of compound 3 (also referred to herein as compound 178). FIG. 5B: Proliferation curves for compound 3 against the Ba/F3 cell line panel (mean±SD, n=3). […] FIG. 5D: The same assay in FIG. 2A was performed with compound 3 in SK-BR-3 cells.

[5] = molecular target: MST2 (Homo sapiens, UniProt Q13188); test: Nanosyn in vitro kinase profiling: MST2; type: biochemical; conditions: compound at 1 μM
MST2, sequence (Q13188 whole entry, species assumed): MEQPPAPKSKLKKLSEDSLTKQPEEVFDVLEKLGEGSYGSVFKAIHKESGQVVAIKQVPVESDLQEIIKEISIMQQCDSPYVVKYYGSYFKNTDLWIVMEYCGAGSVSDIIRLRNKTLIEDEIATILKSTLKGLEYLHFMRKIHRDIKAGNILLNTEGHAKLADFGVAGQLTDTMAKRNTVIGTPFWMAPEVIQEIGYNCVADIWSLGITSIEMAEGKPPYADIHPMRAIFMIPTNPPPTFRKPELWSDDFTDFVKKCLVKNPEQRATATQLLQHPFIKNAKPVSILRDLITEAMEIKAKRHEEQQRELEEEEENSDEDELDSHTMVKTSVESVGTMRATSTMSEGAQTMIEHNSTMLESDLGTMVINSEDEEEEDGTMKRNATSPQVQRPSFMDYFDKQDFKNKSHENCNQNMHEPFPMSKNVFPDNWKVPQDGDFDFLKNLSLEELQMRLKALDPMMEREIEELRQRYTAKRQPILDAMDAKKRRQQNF

T1 sequence (P04626 720-987 limits assumed): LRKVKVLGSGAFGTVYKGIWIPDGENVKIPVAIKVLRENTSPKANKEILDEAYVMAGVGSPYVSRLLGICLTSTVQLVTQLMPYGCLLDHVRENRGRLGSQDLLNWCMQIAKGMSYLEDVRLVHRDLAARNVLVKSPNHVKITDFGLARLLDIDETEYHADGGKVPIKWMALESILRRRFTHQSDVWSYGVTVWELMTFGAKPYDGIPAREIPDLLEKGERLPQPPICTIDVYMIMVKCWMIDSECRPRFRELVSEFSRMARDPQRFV
T2 sequence (P21860 709-966 limits assumed): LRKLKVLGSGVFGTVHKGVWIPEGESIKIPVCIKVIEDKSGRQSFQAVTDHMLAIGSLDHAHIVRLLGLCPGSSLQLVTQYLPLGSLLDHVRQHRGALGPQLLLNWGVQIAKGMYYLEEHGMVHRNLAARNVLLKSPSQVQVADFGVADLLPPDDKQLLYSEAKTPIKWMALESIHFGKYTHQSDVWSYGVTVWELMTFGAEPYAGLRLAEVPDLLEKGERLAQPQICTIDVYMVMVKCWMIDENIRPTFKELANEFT

potency against HER2 in vitro [1]	binding to HER3 [2]	effect of gatekeeper mutation on binding affinity [3]	inhibition at 1 µM [5] [%]	SMILES	sensitivity of proliferation inhibition to NRG [4]
equipotent to lapatinib	capable of binding to HER3	reduces the binding affinity	–	COc1ccc(-c2ccco2)cc1Nc1ncnc2[nH]nc(-c3ccco3)c12 [compound 2, 3-(furan-2-yl)-N-(5-(furan-2-yl)-2-methoxyphenyl)-1H-pyrazolo[3,4-d]pyrimidin-4-amine]	–
–	–	–	84	COc1ccc(-c2ccoc2)cc1Nc1ncnc2[nH]cc(-c3cc[nH]n3)c12 [compound 3, N-(5-(furan-3-yl)-2-methoxyphenyl)-5-(1H-pyrazol-3-yl)-7H-pyrrolo[2,3-d]pyrimidin-4-amine]	insensitive to the presence of NRG
